Reference: ChEMBL document CHEMBL1151870, “Synthetic studies in butenonyl C-glycosides: Preparation of polyfunctional alkanonyl glycosides and their enzyme inhibitory activity” (Bioorg Med Chem Lett, 2009)

Assays:
[1] = target: T1, Glucose-6-phosphatase catalytic subunit 1 (Rattus norvegicus) (UniProt P43428); assay: Inhibition of rat liver glucose-6-phosphatase at 100 uM
T1 sequence (whole entry): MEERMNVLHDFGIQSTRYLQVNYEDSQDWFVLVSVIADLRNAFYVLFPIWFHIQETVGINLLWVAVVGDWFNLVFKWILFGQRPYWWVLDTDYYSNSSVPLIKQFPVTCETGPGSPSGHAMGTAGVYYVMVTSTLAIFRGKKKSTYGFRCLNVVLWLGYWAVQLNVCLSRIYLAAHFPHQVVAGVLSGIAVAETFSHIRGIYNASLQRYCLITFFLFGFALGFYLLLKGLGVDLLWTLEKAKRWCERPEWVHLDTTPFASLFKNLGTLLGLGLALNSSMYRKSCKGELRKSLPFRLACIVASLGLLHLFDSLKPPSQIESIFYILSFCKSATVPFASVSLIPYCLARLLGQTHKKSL

[2] = target: T2, Glycogen phosphorylase, liver form (Rattus norvegicus) (UniProt P09811); assay: Inhibition of rat liver glycogen […] at 100 uM
T2 sequence (whole entry): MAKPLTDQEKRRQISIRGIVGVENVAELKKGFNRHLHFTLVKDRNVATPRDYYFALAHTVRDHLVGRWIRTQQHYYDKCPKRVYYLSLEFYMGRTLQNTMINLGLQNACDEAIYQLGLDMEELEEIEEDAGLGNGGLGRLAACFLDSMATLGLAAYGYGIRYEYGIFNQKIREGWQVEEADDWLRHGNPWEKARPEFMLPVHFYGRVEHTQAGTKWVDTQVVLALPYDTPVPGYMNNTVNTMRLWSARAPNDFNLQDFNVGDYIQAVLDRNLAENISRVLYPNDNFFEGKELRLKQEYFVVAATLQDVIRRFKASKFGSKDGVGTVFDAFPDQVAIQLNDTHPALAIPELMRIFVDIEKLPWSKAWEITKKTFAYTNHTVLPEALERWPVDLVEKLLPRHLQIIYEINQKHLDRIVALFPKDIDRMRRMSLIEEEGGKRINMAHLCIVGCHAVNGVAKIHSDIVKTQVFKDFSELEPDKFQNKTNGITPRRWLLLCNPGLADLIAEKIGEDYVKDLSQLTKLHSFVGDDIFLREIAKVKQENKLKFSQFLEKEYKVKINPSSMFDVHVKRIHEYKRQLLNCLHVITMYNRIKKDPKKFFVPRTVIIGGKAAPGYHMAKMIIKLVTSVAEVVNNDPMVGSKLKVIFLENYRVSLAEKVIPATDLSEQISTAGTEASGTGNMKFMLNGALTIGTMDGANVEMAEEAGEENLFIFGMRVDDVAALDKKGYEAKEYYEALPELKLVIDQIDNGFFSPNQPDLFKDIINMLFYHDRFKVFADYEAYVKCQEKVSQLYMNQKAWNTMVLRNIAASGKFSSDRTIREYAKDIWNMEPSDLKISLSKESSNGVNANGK

Rattus norvegicus [3] = assay: Antihyperglycemic activity against sucrose-challenged fasted Wistar rat assessed as reduction in blood glucose at 100 mg/kg, po administered 30 mins before sucrose challenge measured after 30 mins post sucrose dose relative to control; format: functional; design: scale not given: the % may be the effect or the level left
Rattus norvegicus [4] = assay: Antihyperglycemic activity against sucrose-challenged streptozotocin-induced fasted Sprague-Dawley rat assessed as reduction in hyperglycemia at 100 mg/kg, po administered 30 mins before sucrose challenge measured after 5 hrs post sucrose dose relative to control; format: functional; design: scale not given: the % may be the effect or the level left
Rattus norvegicus [5] = assay: Antihyperglycemic activity against sucrose-challenged streptozotocin-induced fasted Sprague-Dawley rat assessed as reduction in hyperglycemia at 100 mg/kg, po administered 30 mins before sucrose challenge measured after 24 hrs post sucrose dose relative to control; format: functional; design: scale not given: the % may be the effect or the level left
[6] = target: T3, Glucose-6-phosphatase catalytic subunit 1 (Rattus norvegicus, UniProt P43428); assay: Inhibition of rat liver glucose-6-phosphatase
T3 sequence (P43428 whole entry): T1 sequence (whole entry)

[7] = target: Lysosomal alpha-glucosidase (Rattus norvegicus) (UniProt Q6P7A9); assay: Inhibition of rat intestinal alpha-glucosidase at 100 uM
Lysosomal alpha-glucosidase (Rattus norvegicus), sequence (Q6P7A9 whole entry): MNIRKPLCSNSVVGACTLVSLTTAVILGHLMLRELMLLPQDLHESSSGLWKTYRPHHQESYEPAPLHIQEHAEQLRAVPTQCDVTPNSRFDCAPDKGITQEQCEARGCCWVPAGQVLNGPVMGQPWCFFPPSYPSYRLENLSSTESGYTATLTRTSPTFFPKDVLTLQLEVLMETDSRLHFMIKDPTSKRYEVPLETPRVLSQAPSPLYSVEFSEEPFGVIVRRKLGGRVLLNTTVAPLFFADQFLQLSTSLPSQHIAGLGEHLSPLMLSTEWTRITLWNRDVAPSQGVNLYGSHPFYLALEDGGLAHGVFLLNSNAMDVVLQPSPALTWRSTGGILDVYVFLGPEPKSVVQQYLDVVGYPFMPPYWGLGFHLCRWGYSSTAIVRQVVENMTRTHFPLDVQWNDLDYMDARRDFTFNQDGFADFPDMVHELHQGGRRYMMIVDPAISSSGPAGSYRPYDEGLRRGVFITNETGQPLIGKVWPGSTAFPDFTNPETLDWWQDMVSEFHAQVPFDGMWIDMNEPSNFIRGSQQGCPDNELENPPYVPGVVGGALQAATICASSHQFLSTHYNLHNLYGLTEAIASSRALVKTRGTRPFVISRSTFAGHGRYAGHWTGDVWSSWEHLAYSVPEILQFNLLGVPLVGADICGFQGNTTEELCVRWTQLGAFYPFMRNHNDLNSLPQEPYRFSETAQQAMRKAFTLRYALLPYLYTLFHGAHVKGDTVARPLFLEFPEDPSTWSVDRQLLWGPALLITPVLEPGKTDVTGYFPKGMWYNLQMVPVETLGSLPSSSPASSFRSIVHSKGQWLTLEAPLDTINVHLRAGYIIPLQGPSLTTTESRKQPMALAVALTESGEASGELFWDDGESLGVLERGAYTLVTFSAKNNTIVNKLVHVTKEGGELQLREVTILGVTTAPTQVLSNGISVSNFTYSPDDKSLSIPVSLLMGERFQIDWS

[8] = target: T4, Glycogen phosphorylase, liver form (Rattus norvegicus, UniProt P09811); assay: Inhibition of rat liver glycogen […]
T4 sequence (P09811 whole entry): T2 sequence (whole entry)

Row | inhibition [1] | inhibition [2] | SMILES | further results
1 | -9.7% | – | COc1ccc(/C=C/C(=O)C[C@@H]2O[C@H](CO)[C@@H](O)[C@H](O)[C@H]2O)cc1 | –
2 | 4.2% | -3.4% | O=C(/C=C/c1ccc(O)cc1)C[C@@H]1O[C@H](CO)[C@@H](O)[C@H](O)[C@H]1O | –
3 | – | 7.3% | O=C(/C=C/c1ccccc1)C[C@@H]1O[C@H](CO)[C@@H](O)[C@H](O)[C@H]1O | Activity (Rattus norvegicus [3]): 19.5%; Activity (Rattus norvegicus [4]): 2.91%; Activity (Rattus norvegicus [5]): 12.1%; IC50 [6]: 87 µM
4 | 37.6% | – | CCOC(=O)C(C(=O)OCC)C(CC(=O)C[C@@H]1O[C@H](CO)[C@@H](O)[C@H](O)[C@H]1O)c1cccnc1 (mixture of isomers) | –
5 | -6% | -5.4% | CCOC(=O)C(C(=O)OCC)C(CC(=O)C[C@@H]1O[C@H](CO)[C@@H](O)[C@H](O)[C@H]1O)c1ccc(Cl)cc1 (mixture of isomers) | inhibition [7]: -10%
6 | -8.1% | – | O=C(/C=C/c1cccnc1)C[C@@H]1O[C@H](CO)[C@@H](O)[C@H](O)[C@H]1O | –
7 | 15% | -5.9% | COc1ccc(/C=C/C(=O)C[C@@H]2O[C@H](CO)[C@@H](O)[C@H](O)[C@H]2O)cc1OC | Activity (Rattus norvegicus [3]): 26.7%; Activity (Rattus norvegicus [4]): 14.1%; Activity (Rattus norvegicus [5]): 13.4%
8 | 4.7% | – | COc1cc(/C=C/C(=O)C[C@@H]2O[C@H](CO)[C@@H](O)[C@H](O)[C@H]2O)cc(OC)c1OC | –
9 | -3.3% | – | CCOC(=O)C(C(=O)OCC)C(CC(=O)C[C@@H]1O[C@H](CO)[C@@H](O)[C@H](O)[C@H]1O)c1ccccc1 (mixture of isomers) | –
10 | -7.7% | – | O=C(/C=C/c1ccc2ccccc2c1)C[C@@H]1O[C@H](CO)[C@@H](O)[C@H](O)[C@H]1O | Activity (Rattus norvegicus [3]): 25%; Activity (Rattus norvegicus [4]): 14.2%; IC50 [8]: 98 µM; Activity (Rattus norvegicus [5]): 10.3%
11 | – | – | O=C(/C=C/c1ccc(Cl)cc1)C[C@@H]1O[C@H](CO)[C@@H](O)[C@H](O)[C@H]1O | inhibition [7]: -5.97%
12 | -3.9% | -8.3% | O=C(/C=C/c1ccc2ccccc2c1)C[C@@H]1O[C@H](CO)[C@@H](O[C@@H]2O[C@H](CO)[C@@H](O)[C@H](O)[C@H]2O)[C@H](O)[C@H]1O | –
13 | 8% | 15.6% | O=C(/C=C/c1cccc([N+](=O)[O-])c1)C[C@@H]1O[C@H](CO)[C@@H](O)[C@H](O)[C@H]1O | inhibition [7]: -10%
14 | 4.6% | 14.7% | CCOC(=O)C(C(=O)OCC)C(CC(=O)C[C@@H]1O[C@H](CO)[C@@H](O)[C@H](O)[C@H]1O)c1ccc2ccccc2c1 (mixture of isomers) | –
15 | 36.2% | 24% | CCOC(=O)C(C(=O)OCC)C(CC(=O)C[C@@H]1O[C@H](CO)[C@@H](O)[C@H](O)[C@H]1O)c1ccc(OC)c(OC)c1 (mixture of isomers) | inhibition [7]: -2.3%
16 | – | – | CN(C)C(=N)NC(=N)N [METFORMIN] | Activity (Rattus norvegicus [3]): 31.2%; Activity (Rattus norvegicus [4]): 26.9%; Activity (Rattus norvegicus [5]): 21.4%
17 | 4.7% | – | O=C(/C=C/c1ccc(Cl)cc1)C[C@@H]1OC[C@@H](O)[C@H](O)[C@H]1O | inhibition [7]: -8.3%
